Like-named read-outs stand apart in the source and are kept apart here.
What was measured:
[1] = test system: Leptosphaeria nodorum (LEPTNO); assay: In vitro fungitoxicity of hydrazones with and without copper towards Leptosphaeria nodorum (Example 26); assay type: cell-based; conditions: CuCl2 10 μM alone, no test compound; copper-plus versus copper-minus medium across experiments
Phytophthora capsici [2] = assay: In vitro fungitoxicity of hydrazones with and without copper towards Phytophthora capsici (Example 28, Table 3); assay type: cell-based; conditions: CuCl2, 50 μM, no test compound, across experiments
Ustilago maydis = assay: In vitro fungitoxicity of hydrazones with and without copper towards Ustilago maydis (Example 29, Table 4); assay type: cell-based; conditions: CuCl2, 10 μM, no test compound
[3] = test system: Septoria tritici isolate USA-184; assay: In vitro fungitoxicity of hydrazones with and without copper towards Septoria tritici (Example 30, Table 5); assay type: cell-based; conditions: no test compound
[4] = test system: Leptosphaeria nodorum (LEPTNO); assay: Effect of copper on fungitoxicity of metal-hydrazone complexes towards Leptosphaeria nodorum (Example 33, Table 9); assay type: cell-based; conditions: CuCl2, 10 μM, no test compound, across experiments
Phytophthora capsici [5] = assay: Effect of copper on fungitoxicity of metal-hydrazone complexes towards Phytophthora capsici (Example 34, Table 10); assay type: cell-based; conditions: CuCl2, 50 μM, no test compound, across experiments
[6] = test system: Leptosphaeria nodorum (LEPTNO); assay: Fungitoxicity of copper-hydrazone mixtures of different ratios towards Leptosphaeria nodorum (Example 35, Table 11); assay type: cell-based
Protocol: In vitro fungitoxicity assays against LEPTNO were conducted using the copper-minus medium described in Example 26. Mixtures containing hydrazone compound 16 at 200 nM and CuCl2 at 0.2 μM (1:1 molar ratio), 0.8 μM (1:4 ratio), 12.5 μM (1:62.5 ratio) and 200 μM (1:1000 ratio) were prepared in copper-minus medium. Two-fold dilution series of these mixtures were then prepared in 100 μL aliquots of copper-minus medium in flat-bottomed 96-well microtiter plates. A suspension of LEPTNO spores in copper-minus medium at 2×10^5 spores per mL was prepared as in Example 26. Microtiter plates were inoculated with 100 μL of the spore suspension and the plates were incubated at 25° C. for 72 h before assessing fungal growth by measuring light scattering in a NepheloStar plate reader.
(§1) Growth inhibition was determined by comparing growth in the presence of copper-hydrazone mixture with growth in control wells lacking the copper-hydrazone mixture. EC50 values were calculated from dose-response curves, and are expressed as the amounts of hydrazone or copper in each test mixture at the rates providing 50% inhibition of growth as compared to a control lacking the copper-hydrazone mixture.

Phytophthora capsici [7] = assay: Fungitoxicity of copper-hydrazone mixtures of different ratios towards Phytophthora capsici (Example 36, Table 12); assay type: cell-based
Protocol: In vitro fungitoxicity assays against Phytophthora capsici were conducted using the copper-minus AS medium described in Example 28. Mixtures containing hydrazone compound 16 at 200 nM and CuCl2.2H2O at 0.2 μM (1:1 molar ratio), 0.8 μM (1:4 ratio), 3.2 μM (1:16 ratio), 12.5 μM (1:62.5 ratio), 50 μM (1:200 ratio) and 200 μM (1:1000 ratio) were prepared in copper-minus AS medium. Two-fold dilution series of these mixtures were then prepared in 100 μL aliquots of copper-minus AS medium in flat-bottomed 96-well microtiter plates. A suspension of P. capsici zoospores in Chelex-treated water at 5×10^4 spores per mL was prepared as in Example 28. Microtiter plates were inoculated with 100 μL of the spore suspension and incubated at 25° C. for 48 h before assessing fungal growth by measuring light scattering in a NepheloStar plate reader.
as §1

Phytophthora infestans [8] = assay type: in vivo, Phytophthora infestans on tomato (Outdoor Girl); conditions: no hydrazone
Plasmopara viticola = test system: Plasmopara viticola; design: species or system Plasmopara viticola on grape; conditions: in vivo
Phytophthora infestans [9] = assay type: in vivo, Phytophthora infestans on tomato; conditions: Late blight, 160 μM
[10] = CuCl2 without hydrazone, read-out: CuCl2 EC50
[11] = mixture with hydrazone compound 16, Hydrazone:Cu ratio 1 to 1, read-out: CuCl2 EC50 (amount of CuCl2 in mixture at EC50)
[12] = mixture with hydrazone compound 16, Hydrazone:Cu ratio 1 to 4, read-out: CuCl2 EC50 (amount of CuCl2 in mixture at EC50)
[13] = mixture with hydrazone compound 16, Hydrazone:Cu ratio 1 to 62.5, read-out: CuCl2 EC50 (amount of CuCl2 in mixture at EC50)
[14] = mixture with hydrazone compound 16, Hydrazone:Cu ratio 1 to 1000, read-out: CuCl2 EC50 (amount of CuCl2 in mixture at EC50)

`O.O.[Cl][Cu][Cl]` [CuCl2, CuCl2.2H2O, reference compound] was tested, and the “LEPTNO % Inhn. Plus Copper Observed (copper chloride alone)” value [1] was 7.1 ± 6.0%, the “% Inhn attributed to copper chloride alone” value (Phytophthora capsici [2]) was 4.5 ± 7.9% and the “% Inhn. attributed to copper chloride alone” value (“% Inhn. attributed” for short) (Ustilago maydis) was 11.9%. The “effect of copper chloride alone on growth” value ([3]; 1 μM) was “no effect on growth”, the “% Inhibition attributed to copper chloride alone” value ([3]; CuCl2, 1 μM) was 0% and the “% Inhn. attributed” value [4] was 3.3%. For the same compound, the “% Inhn. attributed” value (Phytophthora capsici [5]) was 4.6%, the EC50 [6, 10] was 118000 nM and the EC50 [6, 11] was 72 nM. It also gave an EC50 [6, 12] of 172 nM, an EC50 [6, 13] of 1770 nM and an EC50 [6, 14] of 14000 nM. It also gave an EC50 (Phytophthora capsici [7]; [10]) of 720000 nM, an EC50 (Phytophthora capsici [7]; [11]) of 71 nM and an EC50 (Phytophthora capsici [7]; [12]) of 189 nM. The EC50 (Phytophthora capsici [7]; mixture with hydrazone compound 16, Hydrazone:Cu ratio 1 to 16, read-out: CuCl2 EC50 (amount of CuCl2 in mixture at EC50)) was 441 nM, the EC50 (Phytophthora capsici [7]; [13]) was 1040 nM and the EC50 (Phytophthora capsici [7]; mixture with hydrazone compound 16, Hydrazone:Cu ratio 1 to 250, read-out: CuCl2 EC50 (amount of CuCl2 in mixture at EC50)) was 1900 nM. The EC50 (Phytophthora capsici [7]; [14]) was 4560 nM, the “% Control of Tomato Late Blight” value (Phytophthora infestans [8]; CuCl2 10 μM alone) was 1.7% and the “% Control of Tomato Late Blight” value (Phytophthora infestans [8]; CuCl2 50 μM alone) was 8.5%. The “% Control of Tomato Late Blight” value (Phytophthora infestans [8]; CuCl2 200 μM alone) was 38.2%, the “% Control of Tomato Late Blight” value (Phytophthora infestans [8]; CuCl2 400 μM alone) was 56.0% and the “% Control of Tomato Late Blight” value (Phytophthora infestans [8]; CuCl2 800 μM alone) was 70.2%. For the same compound, the “% Control Observed” value (Plasmopara viticola) was 1% and the “% Control Observed” value (Phytophthora infestans [9]) was 69%.
